The RepoRT retention time repository (doi:10.1016/j.jchromb.2020.122105)

How the values were obtained:
Conditions in all cases: stereoisomer not certain
[1] = HILIC, Thermo Scientific Accucore HILIC, 100 × 2.1 mm, 2.6 µm, 0.5 mL/min, estimated dead time 0.44 min; A: water + 0.1% formic acid + 10 mM ammonium formate, pH 3; B: 5% water + 95% acetonitrile + 0.1% formic acid + 10 mM ammonium formate, pH 3; gradient (min/%B) 0/95 5/95 20/57 25/57 30/95 40/95
[2] = HILIC, Merck SeQuant ZIC-HILIC, 150 × 2.1 mm, 5 µm, 0.75 mL/min, estimated dead time 0.44 min; A: water + 0.1% acetic acid + 10 mM ammonium acetate, pH 4; B: 5% water + 95% acetonitrile + 0.1% acetic acid + 10 mM ammonium acetate, pH 4; gradient (min/%B) 0/95 5/95 20/57 25/57 30/95 40/95
[3] = HILIC, Merck SeQuant ZIC-HILIC, 150 × 2.1 mm, 5 µm, 0.75 mL/min, estimated dead time 0.44 min; A: water + 10 mM ammonium formate, pH 6; B: 5% water + 95% acetonitrile + 10 mM ammonium formate, pH 6; gradient (min/%B) 0/95 5/95 20/57 25/57 30/95 40/95
[4] = HILIC, Waters XBridge BEH Amide, 100 × 2.1 mm, 2.5 µm, 0.5 mL/min, estimated dead time 0.44 min; A: water + 0.1% acetic acid + 10 mM ammonium acetate, pH 4; B: 5% water + 95% acetonitrile + 0.1% acetic acid + 10 mM ammonium acetate, pH 4; gradient (min/%B) 0/95 5/95 20/57 25/57 30/95 40/95
[5] = RP, Waters ACQUITY UPLC BEH C18, 100 × 2.1 mm, 1.7 µm, 0.2 mL/min, estimated dead time 1.1 min; A: water + 0.1% formic acid, pH 3; B: methanol + 0.1% formic acid, pH 3; gradient (min/%B) 0/5 5/5 25/100 30/100 30.1/5 35/5
[6] = RP, Waters ACQUITY UPLC BEH C18, 100 × 2.1 mm, 1.7 µm, 0.1 mL/min, estimated dead time 2.2 min; A: water + 0.1% formic acid, pH 3; B: methanol + 0.1% formic acid, pH 3; gradient (min/%B) 0/5 5/5 25/100 30/100 30.1/5 35/5
[7] = RP, Waters CORTECS T3, 100 × 2.1 mm, 2.7 µm, 0.2 mL/min, estimated dead time 1.1 min; A: water + 0.1% formic acid, pH 3; B: methanol + 0.1% formic acid, pH 3; gradient (min/%B) 0/5 5/5 25/95 25.1/100 35/100 35.1/5 45/5
[8] = RP, Waters CORTECS T3, 100 × 2.1 mm, 2.7 µm, 0.3 mL/min, estimated dead time 0.73 min; A: water + 0.1% formic acid, pH 3; B: methanol + 0.1% formic acid, pH 3; gradient (min/%B) 0/0 5/0 25/100 30/100 30.1/0 35/0
[9] = RP, Waters CORTECS T3, 100 × 2.1 mm, 2.7 µm, 0.25 mL/min, estimated dead time 0.88 min; A: water + 0.1% formic acid, pH 3; B: methanol + 0.1% formic acid, pH 3; gradient (min/%B) 0/0 1/0 6/5 30/100 35/100 35.1/0 40/0
[10] = RP, Waters CORTECS T3, 100 × 2.1 mm, 2.7 µm, 0.3 mL/min, estimated dead time 0.73 min; A: water + 0.1% formic acid, pH 3; B: methanol + 0.1% formic acid, pH 3; gradient (min/%B) 0/0 1/0 6/5 30/100 35/100 35.1/0 40/0
[11] = RP, Waters ACQUITY UPLC BEH C18, 100 × 2.1 mm, 1.7 µm, 0.1 mL/min, estimated dead time 2.2 min; A: water + 0.045% formic acid + 0.11% ammonium hydroxide, pH 7; B: methanol; gradient (min/%B) 0/5 5/5 25/95 25.1/100 35/100 35.1/5 45/5
[12] = RP, Waters ACQUITY UPLC BEH C18, 100 × 2.1 mm, 1.7 µm, 0.1 mL/min, estimated dead time 2.2 min; A: water + 0.1% formic acid, pH 3; B: methanol + 0.1% formic acid, pH 3; gradient (min/%B) 0/5 5/5 25/95 25.1/100 35/100 35.1/5 45/5
[13] = RP, Waters CORTECS T3, 100 × 2.1 mm, 2.7 µm, 0.15 mL/min, estimated dead time 1.5 min; A: water + 0.1% formic acid, pH 3; B: methanol + 0.1% formic acid, pH 3; gradient (min/%B) 0/0 1/0 6/5 30/100 35/100 35.1/0 40/0
[14] = RP, Waters CORTECS T3, 100 × 2.1 mm, 2.7 µm, 0.3 mL/min, estimated dead time 0.73 min; A: water + 0.1% formic acid, pH 3; B: methanol + 0.1% formic acid, pH 3; gradient (min/%B) 0/0 1/0 6/5 30/100 35/100 35.1/0 40/0; remark: listed apart in the source
[15] = RP, Waters ACQUITY UPLC BEH C18, 100 × 2.1 mm, 1.7 µm, 0.2 mL/min, estimated dead time 1.1 min; A: water + 0.025% formic acid + 20 mM ammonium acetate + 0.055% ammonium hydroxide, pH 7; B: methanol; gradient (min/%B) 0/5 5/5 25/100 30/100 30.1/5 35/5
[16] = as above; remark: listed apart in the source
[17] = RP, Waters CORTECS T3, 100 × 2.1 mm, 2.7 µm, 0.25 mL/min, estimated dead time 0.88 min; A: water + 0.1% formic acid, pH 3; B: methanol + 0.1% formic acid, pH 3; gradient (min/%B) 0/5 5/5 25/95 25.1/100 35/100 35.1/5 45/5
[18] = RP, Waters CORTECS T3, 100 × 2.1 mm, 2.7 µm, 0.3 mL/min, estimated dead time 0.73 min; A: water + 0.1% formic acid, pH 3; B: methanol + 0.1% formic acid, pH 3; gradient (min/%B) 0/0 5/0 25/100 30/100 30.1/0 35/0; remark: listed apart in the source
[19] = RP, Thermo Scientific Hypercarb, 150 × 2.1 mm, 5 µm, 0.1 mL/min, estimated dead time 3.3 min; A: water + 0.1% formic acid, pH 3; B: methanol + 0.1% formic acid, pH 3; gradient (min/%B) 0/5 5/5 20/100 35/100 35.1/5 45/5
[20] = RP, Waters CORTECS T3, 100 × 2.1 mm, 2.7 µm, 0.2 mL/min, estimated dead time 1.1 min; A: water + 0.1% formic acid, pH 3; B: methanol + 0.1% formic acid, pH 3; gradient (min/%B) 0/0 1/0 6/5 30/100 35/100 35.1/0 40/0
[21] = as above; remark: listed apart in the source
[22] = RP, Waters ACQUITY UPLC BEH C18, 100 × 2.1 mm, 1.7 µm, 0.1 mL/min, estimated dead time 2.2 min; A: water + 0.1% formic acid, pH 3; B: methanol + 0.1% formic acid, pH 3; gradient (min/%B) 0/5 5/5 25/95 25.1/100 35/100 35.1/5 45/5; remark: listed apart in the source
[23] = RP, Waters CORTECS T3, 100 × 2.1 mm, 2.7 µm, 0.3 mL/min, estimated dead time 0.73 min; A: water + 0.1% formic acid, pH 3; B: methanol + 0.1% formic acid, pH 3; gradient (min/%B) 0/5 5/5 25/100 30/100 30.1/5 35/5
[24] = RP, Waters CORTECS T3, 100 × 2.1 mm, 2.7 µm, 0.15 mL/min, estimated dead time 1.5 min; A: water + 0.1% formic acid, pH 3; B: methanol + 0.1% formic acid, pH 3; gradient (min/%B) 0/5 5/5 25/95 25.1/100 35/100 35.1/5 45/5
[25] = RP, Waters CORTECS T3, 100 × 2.1 mm, 2.7 µm, 0.3 mL/min, estimated dead time 0.73 min; A: water + 0.1% formic acid, pH 3; B: methanol + 0.1% formic acid, pH 3; gradient (min/%B) 0/5 5/5 25/95 25.1/100 35/100 35.1/5 45/5
[26] = RP, Waters ACQUITY UPLC BEH C18, 100 × 2.1 mm, 1.7 µm, 0.1 mL/min, estimated dead time 2.2 min; A: water + 0.1% formic acid, pH 3; B: methanol + 0.1% formic acid, pH 3; gradient (min/%B) 0/5 5/5 25/95 25.1/100 35/100 35.1/5 45/5; remark: listed apart in the source
[27] = RP, Waters CORTECS T3, 100 × 2.1 mm, 2.7 µm, 0.1 mL/min, estimated dead time 2.2 min; A: water + 0.1% formic acid, pH 3; B: methanol + 0.1% formic acid, pH 3; gradient (min/%B) 0/0 1/0 6/5 30/100 35/100 35.1/0 40/0
[28] = RP, Waters CORTECS T3, 100 × 2.1 mm, 2.7 µm, 0.1 mL/min, estimated dead time 2.2 min; A: water + 0.1% formic acid, pH 3; B: methanol + 0.1% formic acid, pH 3; gradient (min/%B) 0/5 5/5 25/95 25.1/100 35/100 35.1/5 45/5

LC retention time [1]	LC retention time [2]	LC retention time [3]	LC retention time [4]	LC retention time [5]	LC retention time [6]	LC retention time [7]	LC retention time [8]	LC retention time [9]	LC retention time [13]	LC retention time [16]	LC retention time [17]	LC retention time [18]	LC retention time [19]	Compound	also measured
11.2 min	12.2 min	12.8 min	12.1 min											CC(O)(CC(=O)O)CC(=O)O [3-HYDROXY-3-METHYLGLUTARATE]	
2.08 min		2.16 min	2.99 min	1.36 min	2.71 min	2.67 min	0.91 min	1.06 min	1.8 min	1.89 min	1.06 min	0.91 min		Nc1ncnc2nc[nH]c12 [ADENINE]	LC retention time [10]: 0.9 min; LC retention time [11]: 2.75 min; LC retention time [12]: 2.65 min; LC retention time [14]: 0.9 min; LC retention time [15]: 3.46 min
15.4 min	16.3 min	15.9 min	15 min			2.43 min				1.36 min			4.86 min	NCCC(=O)NC(Cc1cnc[nH]1)C(=O)O (configuration not stated) [CARNOSINE]	
11.8 min	15.2 min	15 min	13.1 min											NC(C=O)C(O)C(O)C(O)COS(=O)(=O)O [D-GLUCOSAMINE 6-SULFATE]	
9.61 min				21.8 min						19.5 min	21.7 min			CC(CCC(=O)NCC(=O)O)C1CCC2C3C(O)CC4CC(O)CCC4(C)C3CC(O)C12C (configuration not stated) [GLYCOCHOLATE]	
14.9 min						2.39 min							4.72 min	N[C@@H](Cc1cnc[nH]1)C(=O)O [L-HISTIDINE]	
9.23 min														CCCCCCCCCCCC(=O)O [LAURIC ACID]	
13 min	13.4 min	13.6 min	13.2 min	1.34 min	2.69 min	2.64 min	0.89 min	1.09 min	1.78 min			0.89 min	4.9 min	CC(=O)NC(CCCCN)C(=O)O [N-ALPHA-ACETYL-L-LYSINE]	LC retention time [20]: 1.34 min; LC retention time [21]: 1.35 min; LC retention time [15]: 1.37 min
				17.5 min	20.6 min	22.9 min	16.2 min	18.7 min	20.8 min	12.8 min	16.6 min	16.2 min		CCCCCCSCC(NC(=O)CCC(N)C(=O)O)C(=O)NCC(=O)O (configuration not stated) [S-HEXYL-GLUTATHIONE]	LC retention time [22]: 21.2 min; LC retention time [20]: 19.5 min; LC retention time [23]: 15.6 min; LC retention time [24]: 18.5 min; LC retention time [25]: 16 min; LC retention time [10]: 18.1 min; LC retention time [26]: 21.2 min; LC retention time [21]: 19.5 min; LC retention time [11]: 19.8 min; LC retention time [27]: 17.4 min; LC retention time [12]: 21.1 min; LC retention time [14]: 18.1 min; LC retention time [28]: 20.5 min
